Drawing on patent US12150940B2, “WASp-protecting small molecules, compositions, methods and uses thereof in the treatment of innate and acquired immune-related disorders or conditions” (BAR ILAN UNIVERSITY, priority 2016, dated 2024), this text covers WASp ubiquitylation and migration for 2 compounds.

The subject of assay [1] is WASp. In words: WASp ubiquitylation in Meg-01 cells (immunoprecipitation, anti-ubiquitin blot). In kind it is cell-based, human. The settings on record: Meg-01 cells after activation, treated vs untreated. The procedure:
Freshly-isolated platelets were stimulated with 10 μM of TRAP-6 for the indicated time points, followed by lysis. WIP (FIG. 7A) or WASp (FIG. 7B) were immunoprecipitated from the lysates and analyzed by western blot for co-immunoprecipitation, using anti-WASp, anti-WIP or anti-PKCθ antibodies. WASp immunoprecipitates were immunoblotted for WASp ubiquitylation using anti-ubiquitin (Ub) antibody (FIG. 7C). Ubiquitylated WASp appears as a smear of bands above the MW of 65 kDa with a prominent band at ˜81 kDa. […] Blots are representative of three independent experiments. Meg-01 megakaryocyte cell line was activated in the presence (+) or absence (−) of MG132, followed by lysis (FIG. 7E). WASp ubiquitylation was determined by co-immunoprecipitation analysis as in FIG. 7C. […] PKCθ and WASp protein expression levels were analyzed by western blot with anti-PKCθ and anti-WASp antibodies, and with anti-GAPDH as loading control. Relative protein expression was determined by densitometric analysis and is presented below the corresponding lanes. […]
Insufficient WASp expression in platelets and megakaryocytes is the cause of microthrombocytopenia of WAS/XLT patients (Albert et al 2010, Lutskiy et al, 2007). […] Similarly, reciprocal co-precipitation was detected between WASp and WIP during the first two minutes of activation when WASp was immunoprecipitated (FIG. 7B). […]

For assay [2], the system named is WAS−/− Jurkat T-cells. The assay can be described thus: Lymphocyte migration on ICAM-1/SDF-1α, WAS−/− cells. The class given is cell-based, human. The procedure:
WASp knockout Jurkat T-cell lines that express only exogenous YFP-WASp R86C (WAS^−/−/WASp R86C) or Y107C (WAS^−/−/WASp Y107C) were pretreated with SMC #34 in comparison to cells treated with the control. Cells that completely lack WASp expression (WAS^−/−) were also treated with the control. Cellular migration was tracked over a 20-min period on ICAM-1/SDF-1α-coated cover glasses, as described in Experimental procedures.
Approximately 1×10^5 lymphocytes were seeded over chambered coverslips (LabTek) pre-coated with 6 μg/ml ICAM-1 and 2 μg/ml SDF-1α. Cells were incubated at 37° C., 5% CO2 and DIC images were acquired with the Zeiss Observer Z1 inverted microscope every 5 s for 20 min under a 20× objective lens using Zen software. The random movement (Displacement and velocity) of the cells was automatically tracked and analyzed using TrackMate plugin of ImageJ software. An individual trace was assigned to each of the analyzed cells.

Peptide text beside a SMILES is read from it. * marks the point of attachment. Cbz = O=C(OCc1ccccc1)*

For the compound `CC(C)C[C@@H](C=O)NC(=O)[C@H](CC(C)C)NC(=O)[C@H](CC(C)C)NC(=O)OCc1ccccc1` [MG132] (Cbz-Leu-Leu-Leu-aldehyde), in assay [1], the WASp ubiquitylation entry is listed as “more intense”.

Consider `CC1CCCC(C)N1C(=O)CSc1nnc(COc2cccc3cccnc23)o1` (centres unmarked) [SMC #34, 1-(2,6-dimethylpiperidin-1-yl)-2-[[5-(quinolin-8-yloxymethyl)-1,3,4-oxadiazol-2-yl]sulfanyl]ethanone], for which the migration result in assay [2] is given as “completely restored the migration”.
